Measurements taken from paper PMC3951324, “Side Chain Hydrophobicity Modulates Therapeutic Activity and Membrane Selectivity of Antimicrobial Peptide Mastoparan-X” (PLoS ONE, 2014).
Ends that are not written are not given here.

Experiment: Peptide partitioning by ITC
Type: physicochemical
Settings: 37°C
Procedure: Lipid stock solutions of POPC and POPG were prepared in chloroform∶methanol (9∶1). Mixtures of POPC∶POPG (3∶1) were prepared and the organic solvent was evaporated under a gentle stream of nitrogen. The lipid films were kept in vacuum (P<0.1 Pa) overnight in order to remove the residual solvent. Buffer containing 10 mM HEPES and 100 mM sodium chloride (pH 7.4) was added to the lipid films, and they were hydrated for 60 min followed by extrusion through 100 nm using an Avanti mini-extruder. Dynamic Light Scattering (DLS, Brookhaven Instrument Corporation, ZetaPALS) was used for measuring the liposome size distribution. The effective lipid concentration was determined by inductively coupled plasma atomic emission spectroscopy (ICP-AES Vista AX, Varian).
The partitioning of AMPs onto lipid membranes was investigated by isothermal titration calorimetry (ITC, iTC200, Microcal, 204 µL cell volume). For the peptide analogues MPX, Ala1 and Ala14, 10 mM […] (3∶1) LUVs were injected (19×2 µL) into a 20 µM peptide solution at T = 37°C. The speed of the stirrer was 1000 rpms, and all titration were initiated with a 0.5 µL pre-injection. The heat-traces were integrated using custom made software, and the heat of partitioning was analysed using a partitioning isotherm based on Gouy-Chapman-Stern description of the electrostatic interaction of the peptide and membrane, [32]. The effective charge of the peptide (zeff), the partitioning coefficient of insertion (Kins), the molar enthalpy of partitioning ( [drawing 4] ), and the heat of dilution (qdil) were extracted as fitting parameters. The effective partitioning coefficient was derived as [drawing 5] where F is Faradays constant, [drawing 6] is the electrostatic potential evaluated at the interface of a fully charged membrane (25mol% negative charge before insertion of the first peptide), and R is the ideal gas constant. The instrument was electrically calibrated, and blank titration of LUVs into buffer was performed to ensure that heat of dilution could be modelled as a constant in the data analysis. Each titration was conducted in triplicates.

For “INWKGIAAMAKKLL-NH2 [MPX, mastoparan X, reference compound]”, which “effective charge (zeff) of the peptide” value (10 mM POPC∶POPG (3∶1) 100 nm LUVs injected (19×2 µL) into 20 µM peptide, pH 7.4, Gouy-Chapman-Stern fit, triplicates) is on record?
The value was 2.5±0.1.

And the “partition coefficient of insertion Kins/10^5” value (10 mM POPC∶POPG (3∶1) LUVs into 20 µM peptide, pH 7.4, Gouy-Chapman-Stern fit, value is Kins divided by 10^5, triplicates)?
The value was 4.2±0.2.

What about the “molar enthalpy of partitioning” value (10 mM POPC∶POPG (3∶1) LUVs into 20 µM peptide, pH 7.4, triplicates) of the same substance?
Its value is -5.74 ± 0.072 kcal/mol.

What about the “effective partition coefficient Keff/10^8” value (derived from Kins, zeff and the surface potential of fully charged membrane (25 mol% negative charge), value is Keff divided by 10^8) of the same substance?
Its value is 1.6±0.2.
